The subject of this assay is breast cancer patients. Kind of assay: Shc Test TMA study: protection by adjuvant tamoxifen or chemotherapy by Shc risk group (multivariate survival models). It is filed as in vivo, human. The source says: Materials and Methods: Patient samples included primary invasive tumor specimens from 4,326 British Columbian women in Tumor Micro-Array (TMA) format (no adjuvant therapy=1860; tamoxifen=1366; chemotherapy (AC, CMF, FAC, CEF)=744; relapsed=1752; died of disease=1334, average follow-up 13 yrs). Two additional sources were 65 primary tumor specimens from tamoxifen-only-treated patients (10 recurrences, 6.4 yrs average follow-up) from Roger Williams Medical Center (RWMC), and 32 (14 recurrences) from a published study (Massachusetts General Hospital (MGH)) (Ma et al., Cancer Cell, 5:1-10 (2004)). Immunohistochemistry (IHC) staining of the Shc proteins was scored on a continuous 0-5 scale by two pathologists, blinded to patient clinical data.
Analysis of relapse-free survival (RFS) and disease specific survival (DSS) used multivariate models under assumptions of both log-normality as well as proportionality of hazard rate.

For the compound `CC/C(=C(\c1ccccc1)c1ccc(OCCN(C)C)cc1)c1ccccc1` [tamoxifen], the “hazard ratio (HR) of tamoxifen therapy” value (12% of patients classified as high risk by the Shc Test, node positive patients) was 0.26. Besides, the benefit from tamoxifen result (63% patients in the low risk group by the Shc Test) was “little benefit”.
